Among the data in US9938273B2 (Plexxikon Inc., priority 2015, dated 2018) are IC50 values, retold here.

The subject of assay [1] is MOLM-14 D835Y cells, FLT3 ITD and FLT3 D835Y. The experiment in a line: Cell proliferation assay (CellTiter-Glo), MOLM-14 D835Y. The class given is cell-based. Conditions: Homo sapiens, 72 h, 3d-Growth, GMean. The essentials:
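MOLM-14 AML cells (endogenous FLT3 ITD, AC220-selected D835Y or F691L variants) or murine Ba/F3 expressing full-length FLT3 ITD/D835Y, without IL-3 for FLT3 dependence, 1×10^4 cells/well. Eight-point 1:3 series from 1 μM final, 0.2% DMSO, 3 days at 37 °C. CellTiter-Glo luminescence (ATP) gave IC50.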

Assay [2] concerns MOLM-14 F691L cells, FLT3 ITD and FLT3 F691L. The experiment in a line: Cell proliferation assay (CellTiter-Glo), MOLM-14 F691L. The format is cell-based. Conditions: Homo sapiens, 72 h, 3d-Growth, GMean. From the text:
The FLT3 inhibitors may be assessed using the MOLM-14, Acute Myeloid Leukemia cell line that endogenously expresses FLT3 ITD or derivatives of the human FLT3 AML cell line which acquired the D835Y (activation loop) of F691L (gatekeeper) mutation after selection in escalating doses of the FLT3 Inhibitor AC220. FLT3 inhibitors may also be assessed using cells that are engineered to express mutant FLT3. For engineered cells, murine Ba/F3 cells were transfected with full-length FLT3 ITD/D835Y mutations. The parental BA/F3 cells are dependent upon Interleukin-3 (IL-3) for survival, and introduction of the FLT3 constructs rendered these cells dependent upon FLT3 kinase activity when cultured in the absences of IL-3. Engineered BA/F3 cell growth assays can be performed in either the […] of IL-3, to assess the compound inhibition of FLT3 or to detect the presence of off-target activity, respectively. Inhibitors of FLT3 kinase activity reduce or eliminate the FLT3 oncogenic signaling, resulting in reduced cell proliferation. This inhibition is measured as a function of compound concentration to asses IC50 values.
Cell lines used in proliferation assays are as follows in Table 3:
Cells were seeded at 1×10^4 cells per well of a 96 well cell culture plate in 50 μl of cell culture medium. Compounds were dissolved in DMSO, typically at a concentration of 0.5 mM and were serially diluted 1:3 for a total of eight points and added to the cells to final concentrations of […], 0.0041, 0.0014 and 0.00046 μM in 100 μl cell culture medium (final concentration 0.2% DMSO). […] The cells were incubated at 37° C., 5% CO2 for three days. CellTiter-Glo Buffer (Promega Cell Viability Assay catalog #G7573) and substrate were equilibrated to room temperature, and enzyme/substrate Recombinant Firefly Luciferase/Beetle Luciferin was reconstituted. The cell plates were equilibrated to room temperature for 30 minutes, then lysed by addition of an equivalent volume of the Celltiter-Glo Reagent. The plate was mixed for 10 minutes on a plate shaker to lyse the cells. The plates were read on a Tecan M1000 using Luminescence protocol modified to read 0.1 s per well. The luminescence reading assesses the ATP content, which correlates directly with cell number such that the reading as a function of compound concentration was used to determine the IC50 value.

Regarding `CC(C)(C#N)CNC(=O)c1cccc(-c2cnc3[nH]c(C4=CCN(C(=O)C5CC5)C4)cc3c2)n1` [Compound P-0141, N-(2-cyano-2-methyl-propyl)-6-[2-[1-(cyclopropanecarbonyl)-2,5-dihydropyrrol-3-yl]-1H-pyrrolo[2,3-b]pyridin-5-yl]pyridine-2-carboxamide], the IC50 in assay [1] and in assay [2] was 0.0001 to 10 µM in each case.
`CC(C)(C#N)CNC(=O)c1cccc(-c2cnc3[nH]c(-c4ccc(F)cc4)cc3c2)n1` [Compound P-0144, N-(2-cyano-2-methyl-propyl)-6-[2-(4-fluorophenyl)-1H-pyrrolo[2,3-b]pyridin-5-yl]pyridine-2-carboxamide]: the IC50 in assay [1] and in assay [2] was 0.0001 to 10 µM in each case.
On to `CC(C)(C#N)NC(=O)c1cccc(-c2cnc3[nH]c(-c4ccc(F)cc4)cc3c2)n1` [Compound P-0145, N-(1-cyano-1-methyl-ethyl)-6-[2-(4-fluorophenyl)-1H-pyrrolo[2,3-b]pyridin-5-yl]pyridine-2-carboxamide], for which the IC50 in assay [1] and in assay [2] was 0.0001 to 10 µM each time.
Turning to `N#CC1(NC(=O)c2cccc(-c3cnc4[nH]c(-c5ccccc5)cc4c3)n2)CCCC1` [Compound P-0146, N-(1-cyanocyclopentyl)-6-(2-phenyl-1H-pyrrolo[2,3-b]pyridin-5-yl)pyridine-2-carboxamide], the IC50 in assay [1] and in assay [2] was 0.0001 to 10 µM each time.
For the compound `N#CCCNC(=O)c1cccc(-c2cnc3[nH]c(-c4ccccc4)c(Br)c3c2)n1` [Compound P-0147, 6-(3-bromo-2-phenyl-1H-pyrrolo[2,3-b]pyridin-5-yl)-N-(2-cyanoethyl)pyridine-2-carboxamide], the IC50 in assay [1] and in assay [2] was 0.0001 to 10 µM each time.
For the compound `CC(C)(O)CNC(=O)c1cccc(-c2cnc3[nH]c(-c4ccccc4)cc3c2)n1` [Compound P-0150, N-(2-hydroxy-2-methyl-propyl)-6-(2-phenyl-1H-pyrrolo[2,3-b]pyridin-5-yl)pyridine-2-carboxamide], the IC50 in assay [1] and in assay [2] was 0.0001 to 10 µM throughout.
Consider `CC(C)(C#N)CNC(=O)c1cccc(-c2cnc3[nH]c(-c4cnn(C(F)F)c4)cc3c2)n1` [Compound P-0153, N-(2-cyano-2-methyl-propyl)-6-[2-[1-(difluoromethyl)pyrazol-4-yl]-1H-pyrrolo[2,3-b]pyridin-5-yl]pyridine-2-carboxamide], for which the IC50 in assay [1] and in assay [2] was 0.0001 to 10 µM in each case.
Consider `O=C(NC1(C(F)(F)F)CC1)c1cccc(-c2cnc3[nH]c(-c4ccccc4)cc3c2)n1` [Compound P-0156, 6-(2-phenyl-1H-pyrrolo[2,3-b]pyridin-5-yl)-N-[1-(trifluoromethyl)cyclopropyl]pyridine-2-carboxamide], for which the IC50 in assay [1] and in assay [2] was 0.0001 to 10 µM each time.
Consider `CC(C)(C#N)CNC(=O)c1cccc(-c2cnc3[nH]c(C4=CCC(F)(F)CC4)cc3c2)n1` [Compound P-0157, N-(2-cyano-2-methyl-propyl)-6-[2-(4,4-difluorocyclohexen-1-yl)-1H-pyrrolo[2,3-b]pyridin-5-yl]pyridine-2-carboxamide], for which the IC50 in assay [1] and in assay [2] was 0.0001 to 10 µM throughout.
On to `CC(C)(C#N)CNC(=O)c1cccc(-c2cnc3[nH]c(C4=CCS(=O)(=O)CC4)cc3c2)n1` [Compound P-0160, N-(2-cyano-2-methyl-propyl)-6-[2-(1,1-dioxo-3,6-dihydro-2H-thiopyran-4-yl)-1H-pyrrolo[2,3-b]pyridin-5-yl]pyridine-2-carboxamide], for which the IC50 in assay [1] and in assay [2] was 0.0001 to 10 µM throughout.
Regarding `CC(C)(C#N)CNC(=O)c1cccc(-c2cnc3[nH]c(C4=CC[S+]([O-])CC4)cc3c2)n1` (centres unmarked) [Compound P-0161, N-(2-cyano-2-methyl-propyl)-6-[2-(1-oxo-3,6-dihydro-2H-thiopyran-4-yl)-1H-pyrrolo[2,3-b]pyridin-5-yl]pyridine-2-carboxamide], the IC50 in assay [1] and in assay [2] was 0.0001 to 10 µM in each case.
Turning to `CC(C)(C#N)CNC(=O)c1cccc(-c2cnc3[nH]c(C4=CCN(C(=O)C5CC5)CC4)cc3c2)n1` [Compound P-0162, N-(2-cyano-2-methyl-propyl)-6-[2-[1-(cyclopropanecarbonyl)-3,6-dihydro-2H-pyridin-4-yl]-1H-pyrrolo[2,3-b]pyridin-5-yl]pyridine-2-carboxamide], the 50% inhibitory concentration (IC50) in assay [1] and in assay [2] was 0.0001 to 10 µM throughout.
Consider `CC(C)(C#N)NC(=O)c1cccc(-c2cnc3[nH]c(-c4cnn(C(F)F)c4)cc3c2)n1` [Compound P-0164, N-(2-cyanopropan-2-yl)-6-(2-(1-(difluoromethyl)-1H-pyrazol-4-yl)-1H-pyrrolo[2,3-b]pyridin-5-yl)picolinamide], for which the IC50 in assay [1] and in assay [2] was 0.0001 to 10 µM in each case.
Take `CC(C)(C#N)NC(=O)c1cccc(-c2cnc3[nH]c(-c4cnn(C5CC5)c4)cc3c2)n1` [Compound P-0165, N-(1-cyano-1-methyl-ethyl)-6-[2-(1-cyclopropylpyrazol-4-yl)-1H-pyrrolo[2,3-b]pyridin-5-yl]pyridine-2-carboxamide]: the half-inhibitory concentration (IC50) in assay [1] and in assay [2] was 0.0001 to 10 µM throughout.
For `CC(C)(C#N)NC(=O)c1cccc(-c2cnc3[nH]c(-c4cnc(C5CC5)nc4)cc3c2)n1` [Compound P-0166, N-(1-cyano-1-methyl-ethyl)-6-[2-(2-cyclopropylpyrimidin-5-yl)-1H-pyrrolo[2,3-b]pyridin-5-yl]pyridine-2-carboxamide], the IC50 in assay [1] and in assay [2] was 0.0001 to 10 µM in each case.
`CC(C)(C#N)NC(=O)c1cccc(-c2cnc3[nH]c(-c4ccc(C5CC5)nc4)cc3c2)n1` [Compound P-0168, N-(1-cyano-1-methyl-ethyl)-6-[2-(6-cyclopropyl-3-pyridyl)-1H-pyrrolo[2,3-b]pyridin-5-yl]pyridine-2-carboxamide]: the IC50 in assay [1] and in assay [2] was 0.0001 to 10 µM in each case.
Turning to `Cc1nc(C(C)C)sc1-c1cc2cc(-c3cccc(C(=O)NC(C)(C)C#N)n3)cnc2[nH]1` [Compound P-0169, N-(1-cyano-1-methyl-ethyl)-6-[2-(2-isopropyl-4-methyl-thiazol-5-yl)-1H-pyrrolo[2,3-b]pyridin-5-yl]pyridine-2-carboxamide], the IC50 in assay [1] and in assay [2] was 0.0001 to 10 µM each time.
Turning to `CC(C)(C#N)NC(=O)c1cccc(-c2cnc3[nH]c(-c4cnn(CCC#N)c4)cc3c2)n1` [Compound P-0170, 6-[2-[1-(2-cyanoethyl)pyrazol-4-yl]-1H-pyrrolo[2,3-b]pyridin-5-yl]-N-(1-cyano-1-methyl-ethyl)pyridine-2-carboxamide], the IC50 in assay [1] and in assay [2] was 0.0001 to 10 µM in each case.
Turning to `CC(C)(C#N)NC(=O)c1cccc(-c2cnc3[nH]c(-c4cnn(Cc5ccccc5)c4)cc3c2)n1` [Compound P-0171, 6-[2-(1-benzylpyrazol-4-yl)-1H-pyrrolo[2,3-b]pyridin-5-yl]-N-(1-cyano-1-methyl-ethyl)pyridine-2-carboxamide], the IC50 in assay [1] and in assay [2] was 0.0001 to 10 µM in each case.
On to `COCCn1cc(-c2cc3cc(-c4cccc(C(=O)NC(C)(C)C#N)n4)cnc3[nH]2)cn1` [Compound P-0172, N-(1-cyano-1-methyl-ethyl)-6-[2-[1-(2-methoxyethyl)pyrazol-4-yl]-1H-pyrrolo[2,3-b]pyridin-5-yl]pyridine-2-carboxamide], for which the IC50 in assay [1] and in assay [2] was 0.0001 to 10 µM throughout.
For `CC(C)(C#N)NC(=O)c1cccc(-c2cnc3[nH]c(-c4cnn(C5CCOC5)c4)cc3c2)n1` (centres unmarked) [Compound P-0173, N-(1-cyano-1-methyl-ethyl)-6-[2-(1-tetrahydrofuran-3-ylpyrazol-4-yl)-1H-pyrrolo[2,3-b]pyridin-5-yl]pyridine-2-carboxamide], the IC50 in assay [1] and in assay [2] was 0.0001 to 10 µM throughout.
With `CC(C)(C#N)NC(=O)c1cccc(-c2cnc3[nH]c(-c4cnn(CCN5CCOCC5)c4)cc3c2)n1` [Compound P-0174, N-(1-cyano-1-methyl-ethyl)-6-[2-[1-(2-morpholinoethyl)pyrazol-4-yl]-1H-pyrrolo[2,3-b]pyridin-5-yl]pyridine-2-carboxamide], the IC50 in assay [1] and in assay [2] was 0.0001 to 10 µM throughout.

In general, IC50 refers to the concentration that gives 50% inhibition. Read a high IC50 as lower potency.
